From the NIST ThermoML archive (doi:10.1021/acs.jced.8b01135)

Assay: xn = mol fraction of the nth substance listed
Details: 102 kPa, Liquid; for speed of sound: Frequency=3 MHz, Single path-length method; for mass density: Vibrating tube method; for viscosity: Concentric cylinders viscometry

CCCC1CCCCC1 [1-cyclohexylpropane] + CCCCCCCCCCCC
Details	mass density [kg/m3]	speed of sound [m/s]	viscosity [mPa·s]
288.15 K, x1 = 0.1007	755.55	1317.5	–
288.15 K, x1 = 0.2001	758.92	1317.8	–
288.15 K, x1 = 0.3001	762.54	1318.2	–
288.15 K, x1 = 0.4011	766.49	1319.3	–
288.15 K, x1 = 0.5	770.63	1320.1	–
288.15 K, x1 = 0.6004	775.15	1320.9	–
288.15 K, x1 = 0.6995	780	1322.1	–
288.15 K, x1 = 0.7998	785.31	1323.8	–
288.15 K, x1 = 0.8997	791.13	1326.1	–
288.15 K, x1 = 1	797.42	1328.6	–
293.15 K, x1 = 0.1007	751.91	1297.9	1.44
293.15 K, x1 = 0.2001	755.26	1298.2	1.39
293.15 K, x1 = 0.3001	758.87	1298.6	1.34
293.15 K, x1 = 0.4011	762.8	1299.8	1.28
293.15 K, x1 = 0.5	766.92	1300.2	1.23
293.15 K, x1 = 0.6004	771.42	1300.8	1.18
293.15 K, x1 = 0.6995	776.23	1301.9	1.13
293.15 K, x1 = 0.7998	781.51	1303.4	1.08
293.15 K, x1 = 0.8997	787.31	1305.3	1.03
293.15 K, x1 = 1	793.53	1307.7	0.981
298.15 K, x1 = 0.1007	748.27	1278.4	–
298.15 K, x1 = 0.2001	751.61	1278.6	–
298.15 K, x1 = 0.3001	755.2	1279	–
298.15 K, x1 = 0.4011	759.11	1280.3	–
298.15 K, x1 = 0.5	763.2	1280.8	–
298.15 K, x1 = 0.6004	767.68	1280.8	–
298.15 K, x1 = 0.6995	772.46	1281.8	–
298.15 K, x1 = 0.7998	777.71	1283.1	–
298.15 K, x1 = 0.8997	783.46	1284.7	–
298.15 K, x1 = 1	789.63	1287.1	–
303.15 K, x1 = 0.1007	744.62	1259.1	1.23
303.15 K, x1 = 0.2001	747.95	1259.2	1.18
303.15 K, x1 = 0.3001	751.53	1259.5	1.14
303.15 K, x1 = 0.4011	755.41	1260.9	1.1
303.15 K, x1 = 0.5	759.48	1261.1	1.06
303.15 K, x1 = 0.6004	763.93	1261	1.02
303.15 K, x1 = 0.6995	768.68	1261.8	0.977
303.15 K, x1 = 0.7998	773.89	1262.9	0.936
303.15 K, x1 = 0.8997	779.6	1264.3	0.897
303.15 K, x1 = 1	785.72	1266.6	0.856
313.15 K, x1 = 0.1007	737.32	1221.1	1.05
313.15 K, x1 = 0.2001	740.61	1221.1	1.01
313.15 K, x1 = 0.3001	744.15	1221.3	0.979
313.15 K, x1 = 0.4011	747.98	1222.3	0.946
313.15 K, x1 = 0.5	752.01	1222.6	0.914
313.15 K, x1 = 0.6004	756.42	1222.1	0.882
313.15 K, x1 = 0.6995	761.11	1222.6	0.85
313.15 K, x1 = 0.7998	766.24	1223.3	0.818
313.15 K, x1 = 0.8997	771.86	1224.3	0.783
313.15 K, x1 = 1	777.88	1226.2	0.75
323.15 K, x1 = 0.1007	729.98	1183.9	0.909
323.15 K, x1 = 0.2001	733.24	1183.7	0.882
323.15 K, x1 = 0.3001	736.75	1183.8	0.856
323.15 K, x1 = 0.4011	740.52	1184.5	0.831
323.15 K, x1 = 0.5	744.5	1184.6	0.802
323.15 K, x1 = 0.6004	748.86	1183.9	0.776
323.15 K, x1 = 0.6995	753.49	1184.1	0.75
323.15 K, x1 = 0.7998	758.55	1184.6	0.721
323.15 K, x1 = 0.8997	764.09	1185.1	0.694
323.15 K, x1 = 1	770	1186.5	0.668
333.15 K, x1 = 0.1007	722.61	1147.6	0.792
333.15 K, x1 = 0.2001	725.82	1147.3	0.769
333.15 K, x1 = 0.3001	729.3	1147.3	0.75
333.15 K, x1 = 0.4011	733.02	1147.5	0.729
333.15 K, x1 = 0.5	736.95	1147.3	0.707
333.15 K, x1 = 0.6004	741.26	1146.7	0.685
333.15 K, x1 = 0.6995	745.82	1146.7	0.663
333.15 K, x1 = 0.7998	750.81	1146.8	0.64
333.15 K, x1 = 0.8997	756.27	1146.9	0.618
333.15 K, x1 = 1	762.09	1147.7	0.594

CCCCCCCCCCC1CCCCC1 [decylcyclohexane] + CCCCCCCCCCCC
Details	mass density [kg/m3]	speed of sound [m/s]	viscosity [mPa·s]
288.15 K, x1 = 0.1003	760.76	1329.7	–
288.15 K, x1 = 0.2194	770.26	1344	–
288.15 K, x1 = 0.3002	776.43	1353.5	–
288.15 K, x1 = 0.4004	783.8	1364.7	–
288.15 K, x1 = 0.4999	790.8	1375.6	–
288.15 K, x1 = 0.5993	797.51	1386.2	–
288.15 K, x1 = 0.7001	804.03	1396.3	–
288.15 K, x1 = 0.8005	810.28	1406.3	–
288.15 K, x1 = 0.8991	816.18	1415.8	–
288.15 K, x1 = 1	821.93	1425.2	–
293.15 K, x1 = 0.1003	757.16	1310.3	1.7
293.15 K, x1 = 0.2194	766.69	1324.7	1.98
293.15 K, x1 = 0.3002	772.89	1334.2	2.19
293.15 K, x1 = 0.4004	780.28	1345.7	2.48
293.15 K, x1 = 0.4999	787.31	1356.6	2.82
293.15 K, x1 = 0.5993	794.05	1367.1	3.2
293.15 K, x1 = 0.7001	800.58	1377.5	3.64
293.15 K, x1 = 0.8005	806.85	1387.5	4.13
293.15 K, x1 = 0.8991	812.78	1397.1	4.68
293.15 K, x1 = 1	818.54	1406.4	5.34
298.15 K, x1 = 0.1003	753.56	1290.9	–
298.15 K, x1 = 0.2194	763.13	1305.4	–
298.15 K, x1 = 0.3002	769.34	1315	–
298.15 K, x1 = 0.4004	776.76	1326.8	–
298.15 K, x1 = 0.4999	783.81	1337.8	–
298.15 K, x1 = 0.5993	790.58	1348.6	–
298.15 K, x1 = 0.7001	797.13	1358.8	–
298.15 K, x1 = 0.8005	803.42	1368.8	–
298.15 K, x1 = 0.8991	809.36	1378.5	–
298.15 K, x1 = 1	815.16	1387.7	–
303.15 K, x1 = 0.1003	749.96	1271.8	1.43
303.15 K, x1 = 0.2194	759.57	1286.4	1.65
303.15 K, x1 = 0.3002	765.8	1296	1.79
303.15 K, x1 = 0.4004	773.24	1308.1	2.02
303.15 K, x1 = 0.4999	780.31	1319.1	2.27
303.15 K, x1 = 0.5993	787.1	1329.7	2.55
303.15 K, x1 = 0.7001	793.68	1340.2	2.88
303.15 K, x1 = 0.8005	799.99	1350.4	3.23
303.15 K, x1 = 0.8991	805.95	1360.1	3.63
303.15 K, x1 = 1	811.78	1369.1	4.09
313.15 K, x1 = 0.1003	742.75	1234.1	1.21
313.15 K, x1 = 0.2194	752.43	1248.9	1.39
313.15 K, x1 = 0.3002	758.71	1258.7	1.49
313.15 K, x1 = 0.4004	766.19	1271	1.67
313.15 K, x1 = 0.4999	773.32	1282.2	1.87
313.15 K, x1 = 0.5993	780.16	1292	2.08
313.15 K, x1 = 0.7001	786.78	1303.7	2.33
313.15 K, x1 = 0.8005	793.13	1313.9	2.6
313.15 K, x1 = 0.8991	799.14	1323.7	2.89
313.15 K, x1 = 1	805.02	1332.8	3.23
323.15 K, x1 = 0.1003	735.51	1197.2	1.04
323.15 K, x1 = 0.2194	745.28	1212.3	1.19
323.15 K, x1 = 0.3002	751.59	1222.1	1.29
323.15 K, x1 = 0.4004	759.13	1234.7	1.41
323.15 K, x1 = 0.4999	766.31	1246	1.56
323.15 K, x1 = 0.5993	773.2	1257	1.73
323.15 K, x1 = 0.7001	779.88	1267.7	1.92
323.15 K, x1 = 0.8005	786.28	1278.1	2.13
323.15 K, x1 = 0.8991	792.33	1288	2.35
323.15 K, x1 = 1	798.26	1297.2	2.6
333.15 K, x1 = 0.1003	728.24	1161.3	0.904
333.15 K, x1 = 0.2194	738.08	1176.5	1.02
333.15 K, x1 = 0.3002	744.46	1186.5	1.11
333.15 K, x1 = 0.4004	752.05	1199.1	1.2
333.15 K, x1 = 0.4999	759.29	1210.6	1.32
333.15 K, x1 = 0.5993	766.23	1221.8	1.46
333.15 K, x1 = 0.7001	772.96	1232.7	1.61
333.15 K, x1 = 0.8005	779.42	1243.2	1.78
333.15 K, x1 = 0.8991	785.51	1253.2	1.95
333.15 K, x1 = 1	791.49	1262.7	2.15
